We go through six molecules from US12723063B2, “GIPR-agonist compounds” (Eli Lilly and Company, priority 2019, dated 2026).

The target of one assay is T1, human GIPR (Homo sapiens, UniProt P48546).
T1 construct: expressed in transfected cells; crude membranes
T1 sequence (P48546 22-466): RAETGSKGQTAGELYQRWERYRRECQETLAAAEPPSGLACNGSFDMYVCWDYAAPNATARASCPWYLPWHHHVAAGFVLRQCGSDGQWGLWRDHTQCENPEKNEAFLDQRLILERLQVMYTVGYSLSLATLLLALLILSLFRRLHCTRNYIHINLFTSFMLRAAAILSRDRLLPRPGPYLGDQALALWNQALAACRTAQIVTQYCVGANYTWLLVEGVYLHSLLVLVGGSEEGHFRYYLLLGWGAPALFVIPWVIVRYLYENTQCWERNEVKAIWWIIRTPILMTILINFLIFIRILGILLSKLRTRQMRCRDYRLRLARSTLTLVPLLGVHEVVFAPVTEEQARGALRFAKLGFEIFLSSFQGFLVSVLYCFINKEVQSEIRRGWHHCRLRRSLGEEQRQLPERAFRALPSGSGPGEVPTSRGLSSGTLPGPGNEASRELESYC
The assay is described as follows: [125I]-GIP binding, SPA with WGA beads, 0.1% bacitracin. To be noted: geometric mean, read-out: hGIPR Ki. Summed up:
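Ki values are geometric means (SEM, n independent days), derived from four-parameter nonlinear regression of IC50. Membranes came from hGIPR-expressing CHO cells.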

The target in the next assay is T2, human GcgR (Homo sapiens, UniProt P47871).
T2 construct: expressed in transfected cells; crude membranes
T2 sequence (P47871 26-477): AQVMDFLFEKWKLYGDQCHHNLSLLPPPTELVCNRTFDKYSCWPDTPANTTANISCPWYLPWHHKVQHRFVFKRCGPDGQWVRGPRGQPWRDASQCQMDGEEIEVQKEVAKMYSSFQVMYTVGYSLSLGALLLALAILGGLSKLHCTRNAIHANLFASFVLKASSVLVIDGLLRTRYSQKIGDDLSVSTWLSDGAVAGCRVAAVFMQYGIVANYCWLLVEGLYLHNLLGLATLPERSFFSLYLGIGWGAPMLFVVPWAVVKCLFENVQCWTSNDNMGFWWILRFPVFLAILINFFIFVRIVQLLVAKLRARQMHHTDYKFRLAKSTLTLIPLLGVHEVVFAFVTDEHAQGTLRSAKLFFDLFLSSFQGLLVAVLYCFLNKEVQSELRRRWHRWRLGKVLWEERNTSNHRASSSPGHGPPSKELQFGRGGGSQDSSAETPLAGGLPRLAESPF
Briefly: [125I]-Glucagon binding, SPA with WGA beads, 0.1% bacitracin. To be noted: geometric mean, read-out: hGcgR Ki. Summed up:
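SPA competition binding with WGA beads on crude membranes from HEK293 cells stably expressing hGcgR. Buffer: 25 mM HEPES pH 7.4, 2.5 mM CaCl2, 1 mM MgCl2, 0.1% bacitracin, 0.003% Tween-20; 10-point 3-fold dilutions, NSB with 1 μM Gcg.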

By Ki is commonly meant the equilibrium dissociation constant of an inhibitor or competing ligand from its target.

*1 amine or outer side, *2 acyl side, *3 side chain or, on linkers, in order; H or OH if unused. Where a SMILES comes first, the peptide text is derived from it. Side-chain parts run from the residue outwards. [ ]: non-standard residue; d: D form. The star is where a group is joined. C20 diacid = O=C(O)CCCCCCCCCCCCCCCCCCC(=O)*; αMePhe(2-F) = C[C@](N)(Cc1ccccc1F)C(=O)O; γGlu = O=C(O)[C@H](CCC(=O)[*:2])N[*:1]; 4Pal = N[C@@H](Cc1ccncc1)C(=O)O; αMeL = CC(C)C[C@](C)(N)C(=O)O; AEEA = NCCOCCOCC(=O)O; Aib = CC(C)(N)C(=O)O

With `CC[C@H](C)[C@H](NC(=O)[C@H](Cc1ccccc1)NC(=O)[C@@H](NC(=O)CNC(=O)[C@H](CCC(=O)O)NC(=O)C(C)(C)NC(=O)[C@@H](N)Cc1ccc(O)cc1)[C@@H](C)O)C(=O)N[C@@H](CO)C(=O)N[C@@H](CC(=O)O)C(=O)N[C@@H](Cc1ccc(O)cc1)C(=O)N[C@@H](CO)C(=O)N[C@H](C(=O)N[C@@](C)(CC(C)C)C(=O)N[C@@H](CC(C)C)C(=O)N[C@@H](CC(=O)O)C(=O)N[C@@H](CCCCN)C(=O)N[C@@H](CCCCNC(=O)COCCOCCNC(=O)COCCOCCNC(=O)CC[C@H](NC(=O)CCCCCCCCCCCCCCCCCCC(=O)O)C(=O)O)C(=O)N[C@@H](Cc1c[nH]cn1)C(=O)N[C@@H](CCC(N)=O)C(=O)NC(C)(C)C(=O)N[C@@H](CC(=O)O)C(=O)N[C@@H](Cc1ccccc1)C(=O)N[C@H](C(=O)N[C@@H](CCC(=O)O)C(=O)N[C@@H](Cc1ccncc1)C(=O)N[C@@H](CC(C)C)C(=O)N[C@@H](CC(C)C)C(=O)N[C@@H](CCC(=O)O)C(=O)NCC(=O)NCC(=O)N1CCC[C@H]1C(=O)N[C@@H](CO)C(=O)N[C@@H](CO)C(=O)NCC(=O)N[C@@H](C)C(=O)N1CCC[C@H]1C(=O)N1CCC[C@H]1C(=O)N1CCC[C@H]1C(=O)N[C@@H](CO)C(N)=O)C(C)C)[C@@H](C)CC` [Example 47] (H-Y[Aib]EGTFISDYSI[αMeL]LDKK([AEEA-AEEA-γGlu-C20 diacid])HQ[Aib]DFVE[4Pal]LLEGGPSSGAPPPS-NH2), the Ki turned out to be 0.0452 nM at human GIPR and 175 nM at human GcgR.
As to `CC[C@H](C)[C@H](NC(=O)[C@H](CO)NC(=O)[C@H](Cc1ccc(O)cc1)NC(=O)[C@H](CC(=O)O)NC(=O)[C@H](CO)NC(=O)[C@@H](NC(=O)[C@](C)(Cc1ccccc1F)NC(=O)[C@@H](NC(=O)CNC(=O)[C@H](CCC(=O)O)NC(=O)C(C)(C)NC(=O)[C@@H](N)Cc1ccc(O)cc1)[C@@H](C)O)[C@@H](C)CC)C(=O)N[C@@](C)(CC(C)C)C(=O)N[C@@H](CC(C)C)C(=O)N[C@@H](CC(=O)O)C(=O)N[C@@H](CCCCN)C(=O)N[C@@H](CCCCNC(=O)COCCOCCNC(=O)COCCOCCNC(=O)CC[C@H](NC(=O)CCCCCCCCCCCCCCCCCCC(=O)O)C(=O)O)C(=O)N[C@@H](Cc1c[nH]cn1)C(=O)N[C@@H](CCC(N)=O)C(=O)NC(C)(C)C(=O)N[C@@H](CC(=O)O)C(=O)N[C@@H](Cc1ccccc1)C(=O)N[C@H](C(=O)N[C@@H](CCC(=O)O)C(=O)N[C@@H](Cc1ccncc1)C(=O)N[C@@H](CC(C)C)C(=O)N[C@@H](CC(C)C)C(=O)N[C@@H](C)C(=O)NCC(=O)NCC(=O)N1CCC[C@H]1C(=O)N[C@@H](CO)C(=O)N[C@@H](CO)C(=O)NCC(=O)N[C@@H](C)C(=O)N1CCC[C@H]1C(=O)N1CCC[C@H]1C(=O)N1CCC[C@H]1C(=O)N[C@@H](CO)C(N)=O)C(C)C` [Example 51] (H-Y[Aib]EGT[αMePhe(2-F)]ISDYSI[αMeL]LDKK([AEEA-AEEA-γGlu-C20 diacid])HQ[Aib]DFVE[4Pal]LLAGGPSSGAPPPS-NH2), the Ki on human GIPR is 0.0386 nM; at human GcgR, 26.7 nM.
In the case of `CC[C@H](C)[C@H](NC(=O)[C@H](Cc1ccccc1)NC(=O)[C@@H](NC(=O)CNC(=O)[C@H](CCC(=O)O)NC(=O)C(C)(C)NC(=O)[C@@H](N)Cc1ccc(O)cc1)[C@@H](C)O)C(=O)N[C@@H](CO)C(=O)N[C@@H](CC(=O)O)C(=O)N[C@@H](Cc1ccc(O)cc1)C(=O)N[C@@H](CO)C(=O)N[C@H](C(=O)N[C@@](C)(CC(C)C)C(=O)N[C@@H](CC(C)C)C(=O)N[C@@H](CC(=O)O)C(=O)N[C@@H](CCCCN)C(=O)N[C@@H](CCCCNC(=O)COCCOCCNC(=O)COCCOCCNC(=O)CC[C@H](NC(=O)CCCCCCCCCCCCCCCCCCC(=O)O)C(=O)O)C(=O)N[C@@H](Cc1c[nH]cn1)C(=O)N[C@@H](CCC(N)=O)C(=O)NC(C)(C)C(=O)N[C@@H](CC(=O)O)C(=O)N[C@@H](Cc1ccccc1)C(=O)N[C@H](C(=O)N[C@@H](CCC(=O)O)C(=O)N[C@@H](Cc1ccc(O)cc1)C(=O)N[C@@H](CC(C)C)C(=O)N[C@@H](CC(C)C)C(=O)N[C@@H](CCC(=O)O)C(=O)NCC(=O)NCC(=O)N1CCC[C@H]1C(=O)N[C@@H](CO)C(=O)N[C@@H](CO)C(=O)NCC(=O)N[C@@H](C)C(=O)N1CCC[C@H]1C(=O)N1CCC[C@H]1C(=O)N1CCC[C@H]1C(=O)N[C@@H](CO)C(N)=O)C(C)C)[C@@H](C)CC` [Example 69] (H-Y[Aib]EGTFISDYSI[αMeL]LDKK([AEEA-AEEA-γGlu-C20 diacid])HQ[Aib]DFVEYLLEGGPSSGAPPPS-NH2), the Ki at human GIPR came to 0.0406 nM; on human GcgR it was 114 nM.
Take `CC[C@H](C)[C@H](NC(=O)[C@H](CO)NC(=O)[C@H](Cc1ccc(O)cc1)NC(=O)[C@H](CC(=O)O)NC(=O)[C@H](CO)NC(=O)[C@@H](NC(=O)[C@](C)(Cc1ccccc1F)NC(=O)[C@@H](NC(=O)CNC(=O)[C@H](CCC(=O)O)NC(=O)C(C)(C)NC(=O)[C@@H](N)Cc1ccc(O)cc1)[C@@H](C)O)[C@@H](C)CC)C(=O)N[C@@H](C)C(=O)N[C@@H](CC(C)C)C(=O)N[C@@H](CC(=O)O)C(=O)N[C@@H](CCCCN)C(=O)N[C@@H](CCCCNC(=O)COCCOCCNC(=O)COCCOCCNC(=O)CC[C@H](NC(=O)CCCCCCCCCCCCCCCCCCC(=O)O)C(=O)O)C(=O)N[C@@H](Cc1c[nH]cn1)C(=O)N[C@@H](CCC(N)=O)C(=O)NC(C)(C)C(=O)N[C@@H](CC(=O)O)C(=O)N[C@@H](Cc1ccccc1)C(=O)N[C@H](C(=O)N[C@@H](CCC(=O)O)C(=O)N[C@@H](Cc1c[nH]c2ccccc12)C(=O)N[C@@H](CC(C)C)C(=O)N[C@@H](CC(C)C)C(=O)N[C@@H](CCC(=O)O)C(=O)N[C@H](C(=O)NCC(=O)N1CCC[C@H]1C(=O)N[C@@H](CO)C(=O)N[C@@H](CO)C(=O)NCC(=O)N[C@@H](C)C(=O)N1CCC[C@H]1C(=O)N1CCC[C@H]1C(=O)N1CCC[C@H]1C(=O)N[C@@H](CO)C(N)=O)[C@@H](C)O)C(C)C` [Example 40] (H-Y[Aib]EGT[αMePhe(2-F)]ISDYSIALDKK([AEEA-AEEA-γGlu-C20 diacid])HQ[Aib]DFVEWLLETGPSSGAPPPS-NH2): the Ki at human GIPR was found to be 0.0594 nM; at human GcgR it was 50.9 nM.
For the molecule `CC[C@H](C)[C@H](NC(=O)[C@H](Cc1ccccc1)NC(=O)[C@@H](NC(=O)CNC(=O)[C@H](CCC(=O)O)NC(=O)C(C)(C)NC(=O)[C@@H](N)Cc1ccc(O)cc1)[C@@H](C)O)C(=O)N[C@@H](CO)C(=O)N[C@@H](CC(=O)O)C(=O)N[C@@H](Cc1ccc(O)cc1)C(=O)N[C@@H](CO)C(=O)N[C@H](C(=O)N[C@@](C)(CC(C)C)C(=O)N[C@@H](CC(C)C)C(=O)N[C@@H](CC(=O)O)C(=O)N[C@@H](CCCCN)C(=O)N[C@@H](CCCCNC(=O)COCCOCCNC(=O)COCCOCCNC(=O)CC[C@H](NC(=O)CCCCCCCCCCCCCCCCCCC(=O)O)C(=O)O)C(=O)N[C@@H](Cc1c[nH]cn1)C(=O)N[C@@H](CCC(N)=O)C(=O)NC(C)(C)C(=O)N[C@@H](CC(=O)O)C(=O)N[C@@H](Cc1ccccc1)C(=O)N[C@H](C(=O)N[C@@H](CCC(=O)O)C(=O)N[C@@H](Cc1ccc(O)cc1)C(=O)N[C@@H](CC(C)C)C(=O)N[C@@H](CC(C)C)C(=O)N[C@@H](C)C(=O)NCC(=O)NCC(=O)N1CCC[C@H]1C(=O)N[C@@H](CO)C(=O)N[C@@H](CO)C(=O)NCC(=O)N[C@@H](C)C(=O)N1CCC[C@H]1C(=O)N1CCC[C@H]1C(=O)N1CCC[C@H]1C(=O)N[C@@H](CO)C(N)=O)C(C)C)[C@@H](C)CC` [Example 53] (H-Y[Aib]EGTFISDYSI[αMeL]LDKK([AEEA-AEEA-γGlu-C20 diacid])HQ[Aib]DFVEYLLAGGPSSGAPPPS-NH2), the Ki at human GIPR is 0.0184 nM; at human GcgR, 152 nM.
As to `CC[C@H](C)[C@H](NC(=O)[C@H](Cc1ccccc1)NC(=O)[C@@H](NC(=O)CNC(=O)[C@H](CCC(=O)O)NC(=O)C(C)(C)NC(=O)[C@@H](N)Cc1ccc(O)cc1)[C@@H](C)O)C(=O)N[C@@H](CO)C(=O)N[C@@H](CC(=O)O)C(=O)N[C@@H](Cc1ccc(O)cc1)C(=O)N[C@@H](CO)C(=O)N[C@H](C(=O)N[C@@](C)(CC(C)C)C(=O)N[C@@H](CC(C)C)C(=O)N[C@@H](CC(=O)O)C(=O)N[C@@H](CCCCN)C(=O)N[C@@H](CCCCNC(=O)COCCOCCNC(=O)COCCOCCNC(=O)CC[C@H](NC(=O)CCCCCCCCCCCCCCCCCCC(=O)O)C(=O)O)C(=O)N[C@@H](Cc1c[nH]cn1)C(=O)N[C@@H](CCC(N)=O)C(=O)NC(C)(C)C(=O)N[C@@H](CCC(=O)O)C(=O)N[C@@H](Cc1ccccc1)C(=O)N[C@H](C(=O)N[C@@H](CCC(=O)O)C(=O)N[C@@H](Cc1ccncc1)C(=O)N[C@@H](CC(C)C)C(=O)N[C@@H](CC(C)C)C(=O)N[C@@H](C)C(=O)N[C@@H](C)C(=O)NCC(=O)N1CCC[C@H]1C(=O)N[C@@H](CO)C(=O)N[C@@H](CO)C(=O)NCC(=O)N[C@@H](C)C(=O)N1CCC[C@H]1C(=O)N1CCC[C@H]1C(=O)N1CCC[C@H]1C(=O)N[C@@H](CO)C(N)=O)C(C)C)[C@@H](C)CC` [Example 59], the Ki at human GIPR was 0.0148 nM; on human GcgR it was 230 nM.
